In ChEMBL document CHEMBL5463729, “Data for DCP probe BAY 1753011” (2023):

Key:
Conditions in all cases: Compound concentration 10.0 uM
[1] = target: TGF-beta receptor type-2 (Homo sapiens) (UniProt P37173); assay: Inhibition of TGFBR2(h) at 10.0 µM in the Eurofins Kinase panel
[2] = target: Protein-tyrosine kinase 6 (Homo sapiens) (UniProt Q13882); assay: Inhibition of BRK(h) at 10.0 µM in the Eurofins Kinase panel
[3] = target: Proto-oncogene tyrosine-protein kinase Src (Homo sapiens) (UniProt P12931); assay: Inhibition of cSRC(h) at 10.0 µM in the Eurofins Kinase panel
[4] = target: Mitogen-activated protein kinase 10 (Homo sapiens) (UniProt P53779); assay: Inhibition of JNK3(h) at 10.0 µM in the Eurofins Kinase panel
[5] = target: Leukocyte tyrosine kinase receptor (Homo sapiens) (UniProt P29376); assay: Inhibition of LTK(h) at 10.0 µM in the Eurofins Kinase panel
[6] = target: Eukaryotic translation initiation factor 2-alpha kinase 1 (Homo sapiens) (UniProt Q9BQI3); assay: Inhibition of HRI(h) at 10.0 µM in the Eurofins Kinase panel
[7] = target: Calcium/calmodulin-dependent protein kinase type IV (Homo sapiens) (UniProt Q16566); assay: Inhibition of CaMKIV(h) at 10.0 µM in the Eurofins Kinase panel
[8] = target: SRSF protein kinase 1 (Homo sapiens) (UniProt Q96SB4); assay: Inhibition of SRPK1(h) at 10.0 µM in the Eurofins Kinase panel
[9] = target: B2 bradykinin receptor (Homo sapiens) (UniProt P30411)
[10] = target: Cyclin-dependent kinase 14/Cyclin-Y (Homo sapiens) (UniProt O94921+Q8ND76); assay: Inhibition of CDK14/cyclinY(h) at 10.0 µM in the Eurofins Kinase panel; assay type: protein-complex assay
[11] = target: Serine/threonine-protein kinase DCLK2 (Homo sapiens) (UniProt Q8N568); assay: Inhibition of DCAMKL2(h) at 10.0 µM in the Eurofins Kinase panel
[12] = target: Serine/threonine-protein kinase PLK3 (Homo sapiens) (UniProt Q9H4B4); assay: Inhibition of Plk3(h) at 10.0 µM in the Eurofins Kinase panel
[13] = target: T1, Alpha-1D adrenergic receptor (Homo sapiens) (UniProt P25100)
T1 sequence (whole entry): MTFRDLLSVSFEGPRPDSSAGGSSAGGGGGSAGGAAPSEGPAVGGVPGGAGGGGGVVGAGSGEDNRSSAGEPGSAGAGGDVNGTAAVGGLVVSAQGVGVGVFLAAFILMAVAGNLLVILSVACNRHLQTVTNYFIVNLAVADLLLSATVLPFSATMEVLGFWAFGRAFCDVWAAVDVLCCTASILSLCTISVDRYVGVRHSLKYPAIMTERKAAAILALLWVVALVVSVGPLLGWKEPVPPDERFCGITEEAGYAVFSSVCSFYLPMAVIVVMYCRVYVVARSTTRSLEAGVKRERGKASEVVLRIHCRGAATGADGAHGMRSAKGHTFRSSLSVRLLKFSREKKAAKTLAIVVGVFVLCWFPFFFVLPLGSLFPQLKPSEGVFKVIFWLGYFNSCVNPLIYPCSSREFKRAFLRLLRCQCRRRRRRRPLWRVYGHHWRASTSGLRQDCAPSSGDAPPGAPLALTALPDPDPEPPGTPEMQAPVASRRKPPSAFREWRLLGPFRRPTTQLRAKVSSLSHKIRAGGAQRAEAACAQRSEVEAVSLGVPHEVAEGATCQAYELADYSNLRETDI

[14] = target: Serine/threonine-protein kinase B-raf (Homo sapiens) (UniProt P15056); assay: Inhibition of B-Raf(h) at 10.0 µM in the Eurofins Kinase panel
[15] = target: T2, Muscarinic acetylcholine receptor M4 (Homo sapiens) (UniProt P08173)
T2 sequence (whole entry): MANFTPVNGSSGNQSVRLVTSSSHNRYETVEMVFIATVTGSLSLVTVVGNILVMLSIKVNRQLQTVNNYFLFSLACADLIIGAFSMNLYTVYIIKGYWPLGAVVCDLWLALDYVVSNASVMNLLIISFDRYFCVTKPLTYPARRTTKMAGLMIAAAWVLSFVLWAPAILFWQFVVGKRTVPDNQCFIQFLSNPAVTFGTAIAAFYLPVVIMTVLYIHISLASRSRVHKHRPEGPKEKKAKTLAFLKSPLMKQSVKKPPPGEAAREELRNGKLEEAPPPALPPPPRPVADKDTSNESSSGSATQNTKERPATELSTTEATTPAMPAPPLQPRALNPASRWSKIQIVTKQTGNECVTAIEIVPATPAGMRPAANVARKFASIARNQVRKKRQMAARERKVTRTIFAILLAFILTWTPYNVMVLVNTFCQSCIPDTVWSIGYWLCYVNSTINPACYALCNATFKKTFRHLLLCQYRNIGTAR

[16] = target: Dual specificity protein kinase CLK1 (Homo sapiens) (UniProt P49759); assay: Inhibition of CLK1(h) at 10.0 µM in the Eurofins Kinase panel
[17] = target: Death-associated protein kinase 2 (Homo sapiens) (UniProt Q9UIK4); assay: Inhibition of DAPK2(h) at 10.0 µM in the Eurofins Kinase panel
[18] = target: 5-hydroxytryptamine receptor 7 (Homo sapiens) (UniProt P34969)
[19] = target: Serine/threonine-protein kinase PRP4 homolog (Homo sapiens) (UniProt Q13523); assay: Inhibition of PRP4(h) at 10.0 µM in the Eurofins Kinase panel
[20] = target: PAS domain-containing serine/threonine-protein kinase (Homo sapiens) (UniProt Q96RG2); assay: Inhibition of PASK(h) at 10.0 µM in the Eurofins Kinase panel
[21] = target: RAF proto-oncogene serine/threonine-protein kinase (Homo sapiens) (UniProt P04049); assay: Inhibition of c-RAF(h) at 10.0 µM in the Eurofins Kinase panel
[22] = target: 5-hydroxytryptamine receptor 2A (Homo sapiens) (UniProt P28223)
[23] = target: Serine/threonine-protein kinase 10 (Homo sapiens) (UniProt O94804); assay: Inhibition of LOK(h) at 10.0 µM in the Eurofins Kinase panel
[24] = target: D(2) dopamine receptor (Homo sapiens) (UniProt P14416)
[25] = target: Cyclin-dependent kinase-like 1 (Homo sapiens) (UniProt Q00532); assay: Inhibition of CDKL1(h) at 10.0 µM in the Eurofins Kinase panel
[26] = target: Phosphatidylinositol 4-phosphate 3-kinase C2 domain-containing subunit alpha (Homo sapiens) (UniProt O00443); assay: Inhibition of PI3KC2a(h) at 10.0 µM in the Eurofins Kinase panel
[27] = target: Calcium/calmodulin-dependent protein kinase type 1G (Homo sapiens) (UniProt Q96NX5); assay: Inhibition of CaMKIgamma(h) at 10.0 µM in the Eurofins Kinase panel

Sequence of 5-hydroxytryptamine receptor 2A (Homo sapiens) (P28223 whole entry): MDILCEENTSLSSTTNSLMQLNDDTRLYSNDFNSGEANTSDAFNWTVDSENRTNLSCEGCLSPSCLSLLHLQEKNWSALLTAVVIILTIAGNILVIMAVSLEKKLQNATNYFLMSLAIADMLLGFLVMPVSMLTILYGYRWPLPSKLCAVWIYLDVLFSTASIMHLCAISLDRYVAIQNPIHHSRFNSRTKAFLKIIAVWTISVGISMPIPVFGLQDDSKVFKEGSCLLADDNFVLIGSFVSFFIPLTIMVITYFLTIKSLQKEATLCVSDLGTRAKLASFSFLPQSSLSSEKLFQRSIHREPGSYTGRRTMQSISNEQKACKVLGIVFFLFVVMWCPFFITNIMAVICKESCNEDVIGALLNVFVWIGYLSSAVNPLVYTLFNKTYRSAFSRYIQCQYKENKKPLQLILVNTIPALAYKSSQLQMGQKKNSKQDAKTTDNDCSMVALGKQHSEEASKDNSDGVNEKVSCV
Sequence of D(2) dopamine receptor (Homo sapiens) (P14416 whole entry): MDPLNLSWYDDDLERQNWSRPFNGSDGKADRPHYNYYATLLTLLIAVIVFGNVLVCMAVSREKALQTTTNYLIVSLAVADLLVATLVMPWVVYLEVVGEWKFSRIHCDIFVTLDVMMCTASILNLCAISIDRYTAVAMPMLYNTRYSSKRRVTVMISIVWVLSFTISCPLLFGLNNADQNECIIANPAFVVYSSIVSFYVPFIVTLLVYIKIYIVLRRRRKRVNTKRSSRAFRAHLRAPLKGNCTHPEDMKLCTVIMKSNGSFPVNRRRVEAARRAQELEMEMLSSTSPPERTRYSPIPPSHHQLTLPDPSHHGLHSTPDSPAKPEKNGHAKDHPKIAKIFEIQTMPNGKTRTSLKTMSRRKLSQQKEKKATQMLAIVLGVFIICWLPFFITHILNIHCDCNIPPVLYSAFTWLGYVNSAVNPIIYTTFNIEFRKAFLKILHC
Sequence of 5-hydroxytryptamine receptor 7 (Homo sapiens) (P34969 whole entry): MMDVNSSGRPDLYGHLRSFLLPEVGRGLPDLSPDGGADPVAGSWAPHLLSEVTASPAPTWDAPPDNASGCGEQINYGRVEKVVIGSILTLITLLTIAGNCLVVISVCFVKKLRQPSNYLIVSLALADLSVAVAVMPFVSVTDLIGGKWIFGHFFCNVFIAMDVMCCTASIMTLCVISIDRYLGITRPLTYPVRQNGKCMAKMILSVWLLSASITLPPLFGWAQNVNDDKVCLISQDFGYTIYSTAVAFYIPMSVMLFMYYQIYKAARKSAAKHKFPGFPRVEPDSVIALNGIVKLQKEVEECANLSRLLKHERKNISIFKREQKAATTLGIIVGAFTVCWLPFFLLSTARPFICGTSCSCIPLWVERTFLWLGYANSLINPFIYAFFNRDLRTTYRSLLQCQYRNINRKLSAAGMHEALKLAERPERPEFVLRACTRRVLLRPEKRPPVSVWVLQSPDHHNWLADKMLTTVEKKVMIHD
Sequence of Phosphatidylinositol 4-phosphate 3-kinase C2 domain-containing subunit alpha (Homo sapiens) (O00443 whole entry, the tested form may be a part): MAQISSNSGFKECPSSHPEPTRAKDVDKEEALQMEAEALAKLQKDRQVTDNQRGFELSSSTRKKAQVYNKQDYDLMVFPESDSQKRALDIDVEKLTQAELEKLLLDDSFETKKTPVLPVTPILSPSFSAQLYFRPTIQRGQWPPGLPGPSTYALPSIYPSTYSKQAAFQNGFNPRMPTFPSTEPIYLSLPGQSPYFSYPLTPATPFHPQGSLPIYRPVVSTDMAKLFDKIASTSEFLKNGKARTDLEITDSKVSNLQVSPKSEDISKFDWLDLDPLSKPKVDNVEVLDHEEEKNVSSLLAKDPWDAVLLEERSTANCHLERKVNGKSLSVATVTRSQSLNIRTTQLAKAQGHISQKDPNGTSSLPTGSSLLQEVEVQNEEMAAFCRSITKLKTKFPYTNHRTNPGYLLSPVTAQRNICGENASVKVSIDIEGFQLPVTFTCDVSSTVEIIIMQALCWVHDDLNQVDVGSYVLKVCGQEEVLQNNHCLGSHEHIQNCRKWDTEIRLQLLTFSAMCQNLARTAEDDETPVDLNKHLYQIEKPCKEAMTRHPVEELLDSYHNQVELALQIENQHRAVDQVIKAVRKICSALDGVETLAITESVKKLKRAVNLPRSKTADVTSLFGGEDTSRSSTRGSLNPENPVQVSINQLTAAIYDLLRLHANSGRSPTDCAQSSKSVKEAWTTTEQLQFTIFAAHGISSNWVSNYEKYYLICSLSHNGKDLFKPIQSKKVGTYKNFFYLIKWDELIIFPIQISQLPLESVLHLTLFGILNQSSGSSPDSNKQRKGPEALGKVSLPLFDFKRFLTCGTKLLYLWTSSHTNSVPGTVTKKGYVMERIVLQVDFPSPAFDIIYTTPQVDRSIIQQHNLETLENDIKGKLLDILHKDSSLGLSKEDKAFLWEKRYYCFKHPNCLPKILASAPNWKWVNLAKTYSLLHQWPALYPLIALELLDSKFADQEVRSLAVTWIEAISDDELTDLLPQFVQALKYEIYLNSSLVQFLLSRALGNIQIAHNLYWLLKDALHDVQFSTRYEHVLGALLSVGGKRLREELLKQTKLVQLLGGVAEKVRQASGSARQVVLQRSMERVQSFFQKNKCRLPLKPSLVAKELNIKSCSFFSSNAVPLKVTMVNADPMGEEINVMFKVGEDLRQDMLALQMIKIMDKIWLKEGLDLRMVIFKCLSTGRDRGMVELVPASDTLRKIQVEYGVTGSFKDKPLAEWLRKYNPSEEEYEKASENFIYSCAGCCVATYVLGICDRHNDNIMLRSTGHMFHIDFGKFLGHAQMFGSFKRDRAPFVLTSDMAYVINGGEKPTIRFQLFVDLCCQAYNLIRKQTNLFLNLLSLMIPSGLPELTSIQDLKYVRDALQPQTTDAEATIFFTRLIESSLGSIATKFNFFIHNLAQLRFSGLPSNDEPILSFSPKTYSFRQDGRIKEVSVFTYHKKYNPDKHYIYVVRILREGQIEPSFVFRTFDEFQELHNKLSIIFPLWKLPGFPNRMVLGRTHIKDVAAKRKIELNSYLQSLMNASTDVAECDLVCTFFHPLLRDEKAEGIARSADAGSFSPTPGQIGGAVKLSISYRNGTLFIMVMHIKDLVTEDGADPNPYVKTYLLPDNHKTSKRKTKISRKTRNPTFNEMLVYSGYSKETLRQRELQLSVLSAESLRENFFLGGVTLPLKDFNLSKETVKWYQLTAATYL
Sequence of PAS domain-containing serine/threonine-protein kinase (Homo sapiens) (Q96RG2 whole entry, the tested form may be a part): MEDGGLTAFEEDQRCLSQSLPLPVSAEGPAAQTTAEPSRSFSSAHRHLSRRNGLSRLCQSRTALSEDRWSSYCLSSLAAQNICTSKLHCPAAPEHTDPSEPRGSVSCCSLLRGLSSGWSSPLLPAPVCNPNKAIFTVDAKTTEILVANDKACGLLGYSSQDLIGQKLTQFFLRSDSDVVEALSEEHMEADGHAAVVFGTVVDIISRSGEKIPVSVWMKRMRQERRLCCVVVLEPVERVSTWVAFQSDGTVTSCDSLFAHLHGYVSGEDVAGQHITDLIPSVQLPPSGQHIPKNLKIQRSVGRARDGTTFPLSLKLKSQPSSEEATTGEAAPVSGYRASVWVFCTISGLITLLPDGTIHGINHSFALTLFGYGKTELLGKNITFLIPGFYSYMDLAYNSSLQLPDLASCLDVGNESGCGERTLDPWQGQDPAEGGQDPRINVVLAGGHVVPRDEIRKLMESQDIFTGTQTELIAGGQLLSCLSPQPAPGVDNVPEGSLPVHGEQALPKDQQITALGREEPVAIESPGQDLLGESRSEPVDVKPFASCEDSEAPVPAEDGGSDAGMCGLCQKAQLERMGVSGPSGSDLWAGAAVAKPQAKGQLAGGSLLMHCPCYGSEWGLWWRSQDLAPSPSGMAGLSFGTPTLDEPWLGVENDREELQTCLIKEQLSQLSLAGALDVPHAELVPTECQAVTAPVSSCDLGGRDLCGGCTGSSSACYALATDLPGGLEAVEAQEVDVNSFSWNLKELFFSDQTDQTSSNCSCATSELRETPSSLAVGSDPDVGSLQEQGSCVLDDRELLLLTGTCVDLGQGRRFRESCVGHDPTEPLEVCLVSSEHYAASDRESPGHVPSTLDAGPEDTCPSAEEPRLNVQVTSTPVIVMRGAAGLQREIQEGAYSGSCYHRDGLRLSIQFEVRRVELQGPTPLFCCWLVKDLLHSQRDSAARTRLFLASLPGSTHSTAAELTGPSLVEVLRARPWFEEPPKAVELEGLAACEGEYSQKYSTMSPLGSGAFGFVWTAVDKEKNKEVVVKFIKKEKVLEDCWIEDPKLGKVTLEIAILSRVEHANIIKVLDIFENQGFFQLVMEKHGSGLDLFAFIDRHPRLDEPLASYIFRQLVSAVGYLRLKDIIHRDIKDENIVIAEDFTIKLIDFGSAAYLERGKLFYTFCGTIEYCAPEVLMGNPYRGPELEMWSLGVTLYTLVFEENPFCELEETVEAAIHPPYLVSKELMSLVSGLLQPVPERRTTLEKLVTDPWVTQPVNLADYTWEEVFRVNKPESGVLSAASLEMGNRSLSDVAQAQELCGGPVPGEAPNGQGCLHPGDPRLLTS
Sequence of Protein-tyrosine kinase 6 (Homo sapiens) (Q13882 whole entry, looked up): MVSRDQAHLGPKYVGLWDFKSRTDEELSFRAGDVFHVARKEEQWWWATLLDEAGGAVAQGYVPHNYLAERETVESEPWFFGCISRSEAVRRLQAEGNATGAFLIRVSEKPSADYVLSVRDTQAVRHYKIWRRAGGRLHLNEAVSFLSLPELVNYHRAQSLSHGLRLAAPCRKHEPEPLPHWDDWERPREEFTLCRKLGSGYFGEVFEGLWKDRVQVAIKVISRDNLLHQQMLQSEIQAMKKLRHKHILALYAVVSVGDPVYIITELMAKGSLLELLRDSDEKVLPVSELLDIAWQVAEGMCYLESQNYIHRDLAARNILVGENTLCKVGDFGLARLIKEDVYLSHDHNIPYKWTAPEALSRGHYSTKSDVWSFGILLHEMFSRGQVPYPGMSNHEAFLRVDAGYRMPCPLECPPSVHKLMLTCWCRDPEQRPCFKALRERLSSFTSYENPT

| SMILES | inhibition [1] | inhibition [2] | inhibition [3] | inhibition [4] | inhibition [5] | inhibition [6] | inhibition [7] | inhibition [8] | inhibition [9] | inhibition [10] | inhibition [11] | inhibition [12] | inhibition [13] | inhibition [14] | inhibition [15] | inhibition [16] | inhibition [17] | inhibition [18] | inhibition [19] | inhibition [20] | also measured |
| --- | --- | --- | --- | --- | --- | --- | --- | --- | --- | --- | --- | --- | --- | --- | --- | --- | --- | --- | --- | --- | --- |
| O=c1n(Cc2cncn2-c2cccc(Cl)c2)nc(-c2ccc(Cl)cc2)n1C[C@H](O)C(F)(F)F | 8.26% | -7.96% | 0.88% | 13.2% | 5.77% | -5.05% | 8.3% | -4.61% | -10% | -0.16% | -8.53% | -0.3% | -1.97% | -2.97% | 0% | 7.05% | 11.7% | -2% | -1.84% | -0.36% | inhibition [21]: -1.49%; inhibition [22]: -2.02%; inhibition [23]: 10.4%; inhibition [24]: -8.61%; inhibition [25]: 6.34%; inhibition [26]: 27.5%; inhibition [27]: 0.71% |
| C[C@H](O)c1nc(Cn2nc(-c3ccc(Cl)cc3)n(C[C@H](O)C(F)(F)F)c2=O)nn1-c1cccc(Cl)c1 [PECAVAPTAN] | 8.85% | -3.8% | -5.76% | 0.72% | 4.2% | 6.64% | 10.3% | -6.76% | 1% | -0.61% | -9.34% | 0.49% | -0.23% | -4.03% | 7% | 7.77% | -2.55% | 17.6% | 6.82% | -4.97% | inhibition [21]: -1.46%; inhibition [22]: 0.62%; inhibition [23]: 2.48%; inhibition [24]: -5.84%; inhibition [25]: 1.83%; inhibition [26]: 11.6%; inhibition [27]: -0.43% |
